Series [1] in a line: Solubility assay (kinetic solubility, PBS pH 7). It is filed as physicochemical. To be noted: pH 7, aqueous buffer, kinetic from dmso stock, pH 7, PBS; read-out: Solubility. In outline: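 Quantitation uses an external standard at 100 µM, prepared from 10 mM stock in acetonitrile:methanol:DMSO (10:80:10). Solubility (µM) = (peak area of sample ÷ peak area of standard) × standard concentration.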

Series [2] can be described thus: Lactate dehydrogenase (LDH) release assay. It is filed as cell-based. An outline of the steps: (§1)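 LDH release, fluorometric membrane-integrity read-out; HCT116 with stable p53-responsive β-lactamase reporter; 8000 cells/well; 0.5% DMSO final; geometric mean, n≥3 biological replicates.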
Series [3] has as its system HCT116 cells. The series can be described thus: Lactate dehydrogenase (LDH) release assay. It is filed as cell-based. An outline of the steps: as §1
The nature of series [4]: Nanoclick permeability assay. An excerpt: Further, there have been several literature reports[18]–[20] that highlight that the combination of hydrophobic character and positive charge can result in mast cell degranulation (MCD), a potentially fatal condition[18]–[20]. […] The NanoClick assay[22] determines permeability of azide-labeled peptides by combining intracellular copper-free click chemistry with NanoBRET technology. Specifically, if an azido-peptide achieves cytosolic exposure, it will react with a cyclooctyne-decorated Halotag construct that is fused with nanoluciferase. This reaction blocks the click labelling of a subsequently added azido-labeled acceptor dye, thus decreasing the NanoBRET signal in a manner that is target-binding agnostic.
This assay was previously described in detail. The assay was performed in 384-well white assay plates (PerkinElmer CUSG03874) using assay-ready frozen cells that had been transiently transfected with the NanoLuc-HaloTag vector that were thawed at plated in complete media at a density of 6000 cells/ well and incubated at 37 °C 5% CO2 overnight. DIBAC-CA was diluted in assay buffer (OptiMem without phenol red + 1% FBS) and added to cells at a final concentration of 3 μM and incubated at 37 °C 5% CO2 for 1 h. Cells were subsequently centrifuged using a BlueWasher instrument (Blue Cat Bio) to remove the DIBAC-CA solution and washed two times with HBSS (Ca2 + , Mg2 + ). A volume of 30 μL of assay buffer was added back to cell plates. Peptides were serially diluted 4-fold in DMSO with a Hamilton Star apparatus and then delivered into assay plates with an acoustic liquid handler Labcyte ECHO (300 nl, 1% DMSO in-well concentration). After incubating cells with peptide for the desired time (4 or 18 h), the HaloTag ligand, NanoBret618-azide, was added to each well at a final concentration of 10 μM. […] Following addition of NanoBRET Nano-Glo Substrate, donor emission (450 nm) and acceptor emission (610 nm) were measured using an Envision instrument (PerkinElmer).

Series [5] is described as follows: Experimental LogD (partition coefficient). The note with it: not stated, Partition Coeff LogD.
Where [6] appears, read: 0% FBS 4Hr, read-out: LDH: Cytotoxicity assay: EC50.
Setting [7] is: Nanoclick permeability assay EC50.
[8] abbreviates: 0% FBS 4Hr, read-out: LDH: Cytotoxicity assay EC50.
Where [9] appears, read: 10% FBS 16Hr, read-out: LDH: Cytotoxicity assay EC50.

≈ marks a conversion by molar mass, not a printed value. Read-outs that look alike come from different tables or passages of the source. Positions of bridges follow the written chain, without caps; N, C: chain ends. Non-standard residues stand in square brackets, D forms with d. Residues, ends and D or L forms follow the SMILES beside them. Lys(N3) = [N-]=[N+]=NCCCC[C@H](N)C(=O)O; R8 = C=CCCCCCC[C@@](C)(N)C(=O)O; Cba = N[C@@H](CC1CCC1)C(=O)O; S5 = C=CCCC[C@](C)(N)C(=O)O; βAla = NCCC(=O)O

Broadly, the EC50 is the concentration giving half of the maximal effect. One may read the logD as the decadic logarithm of the distribution of all forms, ionised or not, between an organic phase and buffer at a given pH. A low value points to lower lipophilicity.

For the compound `CC(=O)N[C@@H](CCCCN=[N+]=[N-])C(=O)NCCC(=O)N[C@@H](CC(C)C)C(=O)N[C@H](C(=O)N[C@@H](Cc1ccccc1)C(=O)N[C@]1(C)CCCCCCC=CCCC[C@@](C)(C(=O)NCC(=O)NCC(=O)NCC(=O)NCC(=O)NCC(=O)NCC(N)=O)NC(=O)[C@H](CC2CCC2)NC(=O)[C@H](CCC(N)=O)NC(=O)[C@H](C)NC(=O)[C@H](Cc2c[nH]c3ccccc23)NC(=O)[C@H](Cc2ccc(O)cc2)NC(=O)[C@H](CCC(=O)O)NC1=O)[C@@H](C)O` [MP-289] (Ac-[Lys(N3)][βAla]LTF[R8]EYWAQ[Cba][S5]GGGGGG-NH2; staple 6-13), in series [1], the solubility kinetic worked out at 142 µM (≈ 296 µg/mL). Also, the concentration for a half-maximal effect (EC50) in series [2] (setting [6]) is more than 50.7 µM; in series [2] (10% FBS 16Hr, read-out: LDH: Cytotoxicity assay: EC50) it was more than 50.7 µM. Also, the entries for the “LDH: Cytotoxicity assay: % Effect” value in series [3] (0% FBS 4Hr) and in series [3] (10% FBS 16Hr) were -4.216% and 3.579%, respectively. Further, the cell entry EC50 in series [4] stood at 615 nM. In series [5], the pH-dependent lipophilicity (logD) was found to be 2.58.
Consider `CC(C)C[C@H](NC(=O)CCNC(=O)[C@@H](N)CCCCN=[N+]=[N-])C(=O)N[C@H](C(=O)N[C@@H](Cc1ccccc1)C(=O)N[C@]1(C)CCCCCCC=CCCC[C@@](C)(C(N)=O)NC(=O)[C@H](CC2CCC2)NC(=O)[C@H](CC(C)C)NC(=O)[C@H](CCC(N)=O)NC(=O)[C@H](Cc2c[nH]c3ccccc23)NC(=O)[C@H](Cc2ccc(O)cc2)NC(=O)[C@H](CCC(=O)O)NC1=O)[C@@H](C)O` [MP-329] (H-[Lys(N3)][βAla]LTF[R8]EYWQL[Cba][S5]-NH2; staple 6-13), for which, in series [1], the solubility kinetic was determined as 5 µM (≈ 8.71 µg/mL). For the same compound, the concentration giving a half-maximal response (EC50) in series [2] (LDH: Cytotoxicity assay: EC50) is more than 50.7 µM; in series [3], 50.5 µM. Besides, in series [4] (setting [7]), the cell entry EC50 is 2690 nM. This compound gave a logD in series [5] of 2.71.
As for `CC(=O)N[C@@H](CCCCN=[N+]=[N-])C(=O)NCCC(=O)N[C@@H](CC(=O)O)C(=O)N[C@H](C(=O)N[C@@H](Cc1ccccc1)C(=O)N[C@]1(C)CCCCCCC=CCCC[C@@](C)(C(=O)N[C@@H](CO)C(=O)N[C@@H](C)C(=O)N[C@@H](C)C(N)=O)NC(=O)[C@H](CC2CCC2)NC(=O)[C@H](CCC(N)=O)NC(=O)[C@H](CC(=O)O)NC(=O)[C@H](Cc2c[nH]c3ccccc23)NC(=O)[C@H](Cc2ccc(O)cc2)NC(=O)[C@H](CC(=O)O)NC1=O)[C@@H](C)O` [MP-495, azide-ATSP-7041 (L1D, E5D, A8D)] (Ac-[Lys(N3)][βAla]DTF[R8]DYWDQ[Cba][S5]SAA-NH2; staple 6-13), in series [1], the solubility kinetic stood at 78.7 µM (≈ 158 µg/mL). In addition, the EC50 in series [2] (setting [6]) was more than 50.6 µM. Also, the “LDH: Cytotoxicity assay: % Effect” value in series [3] (0% FBS 4Hr) turned out to be 1.328%. Moreover, the cell entry EC50 in series [4] turned out to be 327 nM. The logD in series [5] worked out at 1.93.
As for `CC(=O)N[C@@H](CCCCN=[N+]=[N-])C(=O)NCCC(=O)N[C@@H](CC(C)C)C(=O)N[C@H](C(=O)N[C@@H](Cc1ccccc1)C(=O)N[C@]1(C)CCCCCCC=CCCC[C@@](C)(C(=O)N[C@@H](C)C(=O)N[C@@H](C)C(=O)N[C@@H](C)C(=O)N[C@@H](CCC(=O)O)C(=O)N[C@@H](C)C(=O)N[C@H](C)C(N)=O)NC(=O)[C@H](CC2CCC2)NC(=O)[C@H](CCC(N)=O)NC(=O)[C@H](C)NC(=O)[C@H](Cc2c[nH]c3ccccc23)NC(=O)[C@H](Cc2ccc(O)cc2)NC(=O)[C@H](CCC(=O)O)NC1=O)[C@@H](C)O` [MP-835] (Ac-[Lys(N3)][βAla]LTF[R8]EYWAQ[Cba][S5]AAAEA[dA]-NH2; staple 6-13), the solubility kinetic in series [1] worked out at 162 µM (≈ 361 µg/mL). The half-maximal effective concentration (EC50) in series [2] (setting [8]) and in series [2] (setting [9]) was more than 50.7 µM in each case. Also, the “LDH: Cytotoxicity assay % Effect” value in series [3] (0% FBS 4Hr) is listed as 3.786%; in series [3] (10% FBS 16Hr), 22.41%. In series [4], the cell entry EC50 was found to be 537 nM. Further, in series [5], the logD worked out at 2.16.
As for `CC(=O)N[C@@H](CCC(=O)O)C(=O)N[C@@H](CCC(=O)O)C(=O)N[C@@H](CCC(=O)O)C(=O)N[C@@H](CCCCN=[N+]=[N-])C(=O)NCCC(=O)N[C@@H](CC(C)C)C(=O)N[C@H](C(=O)N[C@@H](Cc1ccccc1)C(=O)N[C@]1(C)CCCCCCC=CCCC[C@@](C)(C(=O)N[C@@H](CCC(=O)O)C(=O)N[C@@H](CCC(=O)O)C(=O)N[C@@H](CCC(=O)O)C(N)=O)NC(=O)[C@H](CC2CCC2)NC(=O)[C@H](CCC(N)=O)NC(=O)[C@H](C)NC(=O)[C@H](Cc2c[nH]c3ccccc23)NC(=O)[C@H](Cc2ccc(O)cc2)NC(=O)[C@H](CCC(=O)O)NC1=O)[C@@H](C)O` [MP-764] (Ac-EEE[Lys(N3)][βAla]LTF[R8]EYWAQ[Cba][S5]EEE-NH2; staple 9-16), the solubility kinetic in series [1] was found to be 22 µM (≈ 55.3 µg/mL). The compound further came in with an EC50 in series [2] (LDH: Cytotoxicity assay: EC50) of more than 50.6 µM. Also, the “LDH: Cytotoxicity assay: % Effect” value in series [3] is on record as -1.252%. The cell entry EC50 in series [4] (setting [7]) stood at 2670 nM. This compound also had a pH-dependent lipophilicity (logD) in series [5] of 1.26.
As to `CC(C)C[C@@H]1NC(=O)[C@H](C)NC(=O)[C@H](Cc2c[nH]c3ccccc23)NC(=O)[C@H](Cc2ccc(O)cc2)NC(=O)[C@H](CCC(=O)O)NC(=O)[C@](C)(NC(=O)[C@H](Cc2ccccc2)NC(=O)[C@H](CO)NC(=O)[C@@H](NC(=O)[C@H](CO)NC(=O)CNC(=O)[C@H](CO)NC(=O)[C@H](CCCCN=[N+]=[N-])NC(=O)[C@@H](N)CCC(=O)O)[C@@H](C)O)CCCCCCC=CCCC[C@@](C)(C(N)=O)NC(=O)[C@H](CC(C)C)NC1=O` [MP-0180], the solubility kinetic in series [1] was determined as 24 µM (≈ 46.4 µg/mL). For the same compound, the EC50 in series [2] (LDH: Cytotoxicity assay: EC50) is more than 50.6 µM. Also, the “LDH: Cytotoxicity assay: % Effect” value in series [3] is reported as 13.96%. Moreover, in series [4] (setting [7]), the cell entry EC50 was determined as 495 nM. The logD in series [5] amounted to 2.21.
As to `CC(=O)N[C@@H](CCCCN=[N+]=[N-])C(=O)NCCC(=O)N[C@@H](CC(C)C)C(=O)N[C@H](C(=O)N[C@@H](Cc1ccccc1)C(=O)N[C@]1(C)CCCCCCC=CCCC[C@@](C)(C(=O)N[C@@H](CCC(=O)O)C(=O)N[C@@H](CC(N)=O)C(=O)N[C@@H](Cc2ccccc2)C(N)=O)NC(=O)[C@H](CC2CCC2)NC(=O)[C@H](CCC(N)=O)NC(=O)[C@H](C)NC(=O)[C@H](Cc2c[nH]c3ccccc23)NC(=O)[C@H](Cc2ccc(O)cc2)NC(=O)[C@H](CCC(=O)O)NC1=O)[C@@H](C)O` [MP-328] (Ac-[Lys(N3)][βAla]LTF[R8]EYWAQ[Cba][S5]ENF-NH2; staple 6-13), the solubility kinetic in series [1] is 108 µM (≈ 230 µg/mL). Besides, in series [2] (setting [6]), the half-maximal effective concentration (EC50) is more than 50.6 µM. Moreover, the “LDH: Cytotoxicity assay: % Effect” value in series [3] (0% FBS 4Hr) is -1.88%. For the same compound, the cell entry EC50 in series [4] was 66.3 nM. Further, in series [5], the pH-dependent lipophilicity (logD) amounted to 2.65.
Consider `CC(=O)N[C@@H](CCCCN=[N+]=[N-])C(=O)NCCC(=O)N[C@@H](CC(C)C)C(=O)N[C@H](C(=O)N[C@@H](Cc1ccccc1)C(=O)N[C@]1(C)CCCCCCC=CCCC[C@@](C)(C(=O)N[C@@H](C)C(=O)N[C@@H](CCC(N)=O)C(=O)N[C@@H](C)C(=O)N[C@@H](C)C(=O)N[C@@H](C)C(=O)N[C@H](C)C(N)=O)NC(=O)[C@H](CC2CCC2)NC(=O)[C@H](CCC(N)=O)NC(=O)[C@H](C)NC(=O)[C@H](Cc2c[nH]c3ccccc23)NC(=O)[C@H](Cc2ccc(O)cc2)NC(=O)[C@H](CCC(=O)O)NC1=O)[C@@H](C)O` [MP-966] (Ac-[Lys(N3)][βAla]LTF[R8]EYWAQ[Cba][S5]AQAAA[dA]-NH2; staple 6-13), for which the solubility kinetic in series [1] stood at 160 µM (≈ 356 µg/mL). The EC50 in series [2] (setting [8]) and in series [2] (setting [9]) was more than 50.7 µM in each case. Also, the “LDH: Cytotoxicity assay % Effect” value is -1.602% in series [3] (0% FBS 4Hr) and 12.04% in series [3] (10% FBS 16Hr). Further, the cell entry EC50 in series [4] is 6100 nM. In series [5], the logD was 3.07.
